{"source": "patent US20070243270A1", "about": "“METHODS AND KITS FOR REDUCING CELLULAR DAMAGE, INHIBITING FREE RADICAL PRODUCTION, AND SCAVENGING FREE RADICALS IN MAMMALS” (priority 2003, published 2007)", "key": {"3PC cells": {"system": "3PC cells", "experiment": "ATP-bioluminescence assay, reactive oxygen species-stimulated growth of cells", "type": "cell-based"}, "[1]": {"system": "DMBA-induced epidermal hyperplasia", "experiment": "Inhibition of DMBA-induced epidermal hyperplasia in mouse skin", "type": "in vivo, female SENCAR mice", "description": "One of the best studied in vivo models for evaluation of environmental stress response effects on DNA and cell damage is the mouse skin system in which the skin is treated with a chemical compound known to damage DNA and cell structure and function. […] Exp. Med. Biol. 1995, 369, 167). […] Following dosing and treatment, skin DNA and cell structure and function were evaluated using three endpoints, epidermal hyperplasia, 8-OH-dG formation, and Ha-ras mutation. Each method is described briefly below. Seven week old, pathogen free, female SENCAR mice were purchased from the National Cancer Institute (NCI, Frederick, Md.). Mice were randomized by weight and separated into groups (n=5 mice per group). Experimental groups of mice were treated on shaved dorsal skin with antioxidants, 15 min prior to treatment with DMBA (25 μg per treatment). In topical experiments, different doses, i.e., 0.5, 1.0, 2.0, and/or 4.0 mg, of test or reference antioxidants per mouse were applied topically twice weekly for a total of 8 treatments (4 weeks). […] Negative control groups were treated with vehicle (acetone) only. […] Most antioxidants were administered in acetone. Antioxidants that were not soluble in acetone to the desired concentration, were dissolved in the necessary volume: mixture of acetone and water or ethanol. All topical treatments were administered in a final volume of 0.2 mL. […] The same control groups were maintained. Both positive and negative control groups were fed a standard AIN-93G diet (i.e., not supplemented with antioxidants). […] At sacrifice the shaved dorsal skin section was removed. […] Epidermal thickness was determined in each animal from at least 20 randomly selected sites per animal using formalin-fixed, paraffin-embedded 5 μm sections stained with hematoxylin and eosin. The remaining skin was frozen in liquid nitrogen. All frozen sections were stored at −70 C until analysis for isolation of DNA."}, "codon 61 of c-Ha-ras": {"system": "codon 61 of c-Ha-ras", "experiment": "DMBA-induced Ha-ras codon 61 mutation in mouse skin DNA", "type": "in vivo, female SENCAR mice", "details": "acetone neg. control 3.05", "description": "One of the best studied in vivo models for evaluation of environmental stress response effects on DNA and cell damage is the mouse skin system in which the skin is treated with a chemical compound known to damage DNA and cell structure and function. […] Exp. Med. Biol. 1995, 369, 167). […] Following dosing and treatment, skin DNA and cell structure and function were evaluated using three endpoints, epidermal hyperplasia, 8-OH-dG formation, and Ha-ras mutation. Each method is described briefly below. Seven week old, pathogen free, female SENCAR mice were purchased from the National Cancer Institute (NCI, Frederick, Md.). Mice were randomized by weight and separated into groups (n=5 mice per group). Experimental groups of mice were treated on shaved dorsal skin with antioxidants, 15 min prior to treatment with DMBA (25 μg per treatment). […] Epidermal thickness was determined in each animal from at least 20 randomly selected sites per animal using formalin-fixed, paraffin-embedded 5 μm sections stained with hematoxylin and eosin. […] DNA isolated from freshly-frozen tissues of 5 mice per group was analyzed for […] of c-Ha-ras by PCR analysis. […] The ratio of the amount of wild type DNA to mutated DNA was determined by quantifying intensity of 32P labeling on autoradiograms. […]"}, "[2]": {"details": "3PC cells, read-out: Estimated IC50 (mg/L) in ATP Bioluminescence Assay"}}, "note": "Where two headings read alike, the source gives them in different places.", "data": [{"smiles": "O=C1O[C@H]([C@@H](O)CO)C(O)=C1O", "note": "[Ascorbic Acid, L-ascorbic acid]", "values": [{"measurement": "IC50", "setting": "3PC cells; [2]", "value": 4.6, "unit": "mg/L"}, {"measurement": "IC50", "setting": "3PC cells; ATP bioluminescence, calculated on ascorbic acid content, read-out: Estimated IC50 Based on vitamin C content", "value": 4.6, "unit": "mg/L"}, {"measurement": "IC50", "setting": "3PC cells; ATP bioluminescence, read-out: Estimated IC50 based on weight", "value": 4.6, "unit": "mg/L"}, {"measurement": "Inhibition of DMBA-Induced Epidermal Hyperplasia", "setting": "[1]; dietary 1.0%", "value": 83, "unit": "%"}, {"measurement": "Inhibition of DMBA-Induced Epidermal Hyperplasia", "setting": "[1]; dietary 5.0%", "value": 86, "unit": "%"}, {"measurement": "Inhibition of DMBA-Induced Epidermal Hyperplasia", "setting": "[1]; topical application 0.5 mg", "value": 66, "unit": "%"}, {"measurement": "Inhibition of DMBA-Induced Epidermal Hyperplasia", "setting": "[1]; topical application 2.0 mg", "value": 66, "unit": "%"}, {"measurement": "Ha-ras Formation", "setting": "codon 61 of c-Ha-ras; topical 4 mg + DMBA", "value": 6.19}]}, {"smiles": "Cc1c2ccccc2c(C)c2c1ccc1ccccc12", "note": "[DMBA, dimethylbenzanthracene]", "values": [{"measurement": "Ha-ras Formation", "setting": "codon 61 of c-Ha-ras; DMBA only (pos. control)", "value": 18.39}]}, {"smiles": "CC1=C[C@H](O)CC(C)(C)[C@H]1/C=C/C(C)=C/C=C/C(C)=C/C=C/C=C(C)/C=C/C=C(C)/C=C/C1=C(C)C[C@@H](O)CC1(C)C", "note": "[Lutein, lutein]", "values": [{"measurement": "IC50", "setting": "3PC cells; [2]", "value": 70.8, "unit": "mg/L"}]}]}
